PubChem BioAssay AID2060502 (Molecular Pharmacology Branch, DTP, NCI, 2025)

System: 885724-159-R-J1-PDC complex spheroid viability
Assay: Anticancer human tumor 885724-159-R-J1-PDC patient-derived pancreatic adenocarcinoma cell line growth inhibition [GQUAD]
Conditions: for IC50: curve of first compound; for viability, T/C: stronger effect = lower value
Text: DNA G-quadruplex Stabilizer Agents in Combinations in Complex Spheroids
A high-throughput screen of multi-cell type tumor spheroids was designed to identify active combinations of DNA G-quadruplex stabilizer agents and targeted small molecules. Complex spheroids include a stromal component modeled by human endothelial cells (HUVEC) and fibroblasts modeled by human mesenchymal stem cells (MSCs). The concentration ranges selected for each drug and investigational agent were based upon clinically achievable concentrations if the clinical Cmax of the agent was known.
Compounds. The drugs and investigational agents: pidnarulex (CX-5461; NSC782164), APTO-253 (NSC789042), BRACO-19 (NSC847499), peposertib (NSC802822), ceralasertib (NSC780249), elimusertib (NSC800525), camonsertib (NSC841442), AZD-1390 (NSC803789), olaparib (NSC753686), talazoparib (NSC767125), ART-558 (NSC835418), sotorasib (NSC818433), MRTX-1133 (NSC836407), SN-38 (NSC673596), topotecan (NSC609699), etoposide (NSC141540), doxorubicin (NSC123127), gemcitabine (NSC613327), 5-fluorouracil (NSC19893), paclitaxel (NSC125973), vemurafenib (NSC761431), panobinostat (NSC761190), R-306465 (JNJ-16241199; NSC773264), adavosertib (NSC754352), TP-3654 (NSC805149), carboplatin (NSC241240), KSQ-4279 (NSC840948), and staurosporine (NSC755774) were obtained from the National Cancer Institute (NCI) Developmental Therapeutics Program Chemical Repository (34). The FDA-approved anticancer drug set is available from the NCI Developmental Therapeutics Program. […] The stock solutions were prepared in dimethyl sulfoxide (DMSO, Sigma-Aldrich, St. Louis, MO, cat. D2650) at 800-fold the tested concentration and stored at -70 degrees C prior to their use. All drugs and investigational agents were tested over a range starting from a high concentration at or near the clinical Cmax and decreasing in half-log increments. If the clinical Cmax for an agent had not been determined, the highest concentration tested was 10 microM.
2.3 Cell Culture. All cells were maintained in an incubator at 37 degrees C and 5% CO2 with 95% humidity. The PDC lines were cultured according to standard operating procedures established by the NCI PDMR. All PDCs were thawed and cultured in Matrigel-coated flasks prepared with a working solution of 1X Ham's F-12 nutrient mix, without supplementation (Invitrogen, cat. 11765054), 100 U/mL penicillin-streptomycin (Invitrogen, cat. 15140122), and 2.5% Matrigel (Corning Inc., cat. 354248) for the first three passages. The 857933-349-R-J2-PDC line was cultured in 6C/Colon 1B media, which includes advanced DMEM/F-12 (Thermo Fisher Scientific, cat. 12634028), 10 mM HEPES (Thermo Fisher Scientific, cat. 15630080), 1X GlutaMAX supplement (Thermo Fisher Scientific, cat. 35050061), 0.1 mg/mL primocin (InvivoGen, cat. ant-pm-2), 10% defined fetal bovine serum, heat inactivated (HyClone Laboratories Inc., cat. SH30070.03HI), 50% L-WRN conditioned media (ATCC, cat. CRL-3276), 1.25 mM N-Acetyl-L-cysteine (Sigma-Aldrich, cat. A9165), 10 mM nicotinamide (Sigma-Aldrich, cat. N0636), 1X B-27 supplement (Thermo Fisher Scientific, cat. 17504044), 1X N-2 supplement (Thermo Fisher Scientific, cat. 17502048), 10 microM Y-27632 dihydrochloride (Tocris Bioscience, cat. 1254), and 50 ng/mL human EGF recombinant protein (Thermo Fisher Scientific, cat. PHG0311). The 485176-168-R4-J1-PDC line was cultured in Panc media, which includes all 6C/Colon 1B media components plus 100 ng/mL human FGF-10 (Thermo Fisher Scientific, cat. 100-26), 500 nM SB-431542 (Selleckchem, cat. S1067), and gastrin (Tocris, cat. 3006).
[…]
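Note: spheroids exposed to agents for seven days before readout.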
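Throughout, for viability, T/C: percent of vehicle control viability where 100% = DMSO wells.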

## COc1cccc2c1C(=O)c1c(O)c3c(c(O)c1C2=O)CC(O)(C(=O)CO)CC3OC1CC(N)C(O)C(C)O1 (configuration not stated) + Cc1cnc(CNC(=O)c2c(=O)c3ccc(N4CCCN(C)CC4)nc3n3c2sc2ccccc23)cn1
Second compound 0.0316 µM
  IC50: 2420 nM
Second compound 0.1 µM
  IC50: 2030 nM
Second compound 0.316 µM
  IC50: 1780 nM
Second compound 1 µM
  IC50: 1340 nM
Second compound 3.16 µM
  IC50: 1050 nM
Second compound 10 µM
  IC50: 889 nM
Second compound 0.0316 µM, first compound 0.0316 µM
  viability, T/C: 118%
Second compound 0.0316 µM, first compound 0.1 µM
  viability, T/C: 99.5%
Second compound 0.0316 µM, first compound 0.316 µM
  viability, T/C: 97.7%
Second compound 0.0316 µM, first compound 1 µM
  viability, T/C: 79.2%
Second compound 0.0316 µM, first compound 3.16 µM
  viability, T/C: 39.8%
Second compound 0.0316 µM, first compound 10 µM
  viability, T/C: 3.19%
Second compound 0.1 µM, first compound 0.0316 µM
  viability, T/C: 106%
Second compound 0.1 µM, first compound 0.1 µM
  viability, T/C: 109%
Second compound 0.1 µM, first compound 0.316 µM
  viability, T/C: 99%
Second compound 0.1 µM, first compound 1 µM
  viability, T/C: 83.1%
Second compound 0.1 µM, first compound 3.16 µM
  viability, T/C: 29.6%
Second compound 0.1 µM, first compound 10 µM
  viability, T/C: 2.62%
Second compound 0.316 µM, first compound 0.0316 µM
  viability, T/C: 96.9%
Second compound 0.316 µM, first compound 0.1 µM
  viability, T/C: 93%
Second compound 0.316 µM, first compound 0.316 µM
  viability, T/C: 89.2%
Second compound 0.316 µM, first compound 1 µM
  viability, T/C: 62.6%
Second compound 0.316 µM, first compound 3.16 µM
  viability, T/C: 35.8%
Second compound 0.316 µM, first compound 10 µM
  viability, T/C: 4.79%
Second compound 1 µM, first compound 0.0316 µM
  viability, T/C: 89.7%
Second compound 1 µM, first compound 0.1 µM
  viability, T/C: 88.8%
Second compound 1 µM, first compound 0.316 µM
  viability, T/C: 85.2%
Second compound 1 µM, first compound 1 µM
  viability, T/C: 57.2%
Second compound 1 µM, first compound 3.16 µM
  viability, T/C: 24.1%
Second compound 1 µM, first compound 10 µM
  viability, T/C: 2.16%
Second compound 3.16 µM, first compound 0.0316 µM
  viability, T/C: 88.1%
Second compound 3.16 µM, first compound 0.1 µM
  viability, T/C: 84.8%
Second compound 3.16 µM, first compound 0.316 µM
  viability, T/C: 73.2%
Second compound 3.16 µM, first compound 1 µM
  viability, T/C: 53.6%
Second compound 3.16 µM, first compound 3.16 µM
  viability, T/C: 17.4%
Second compound 3.16 µM, first compound 10 µM
  viability, T/C: 0.96%
Second compound 10 µM, first compound 0.0316 µM
  viability, T/C: 72.2%
Second compound 10 µM, first compound 0.1 µM
  viability, T/C: 80.4%
Second compound 10 µM, first compound 0.316 µM
  viability, T/C: 74%
Second compound 10 µM, first compound 1 µM
  viability, T/C: 46.4%
Second compound 10 µM, first compound 3.16 µM
  viability, T/C: 12.4%
Second compound 10 µM, first compound 10 µM
  viability, T/C: 0.74%
